From US5451599A, “Complex salts of hematoporphyrin and of its derivatives, their synthesis, and therapeutic agent” (Wojskowa Akademia Techniczna im. Jaroslawa Dabrowskiego, priority 1991, dated 1995)

How the values were obtained:
[1] = tested on: GR (GRMT/F6, mammary gland cancer cells of GR-strain mice); experiment: 48 h incubation with the salts: cell fluorescence, living cells, multiplication coefficient (Table 2); format: cell-based, Murine; conditions: 48 hs, 50 mcg/ml
Experimental: (§1) New compounds of formula 1 were tested on cell lines. Use was made of 9 different neoplastic cell lines which were incubated for 48 hs with various new salts of protoporphyrin and with a new salt of the conventionally applied HpD preparation/hematoporphyrin derivatives/obtained according to Lipson et al. All compounds were used in the form of aqueous solutions, at a concentration of 50 mcg/ml. Determination was made of:
(§2) 1/ Cell fluorescence /F/: after 48 hs incubation, the cells were washed away, the intensity of fluorescence was measured in a fluorescence microscope and was expressed on an arbitrary scale of 0-4 scores;
(§3) 2/ Percentage of living cells /P %/ after 48 hs incubation;
(§4) 3/ Cell multiplication coefficient /M/ in the presence of different preparations, expressed as: [formula]
GRMT/F6 mammary gland cancer cells of GR-strain mice

[2] = tested on: MA-104 (Rhesus monkey embryo kidney cancer cells); experiment: 48 h incubation with the salts: cell fluorescence, living cells, multiplication coefficient (Table 1); format: cell-based; conditions: 48 hs, 50 mcg/ml
Experimental: as §1, §2, §3, §4

[3] = tested on: CL; experiment: as above; format: cell-based; conditions: 48 hs, 50 mcg/ml
Experimental: as §1, §2, §3, §4

[4] = tested on: PZ; experiment: as above; format: cell-based; conditions: 48 hs, 50 mcg/ml
Experimental: as §1, §2, §3, §4

[5] = tested on: HBT-39/w (breast cancer cells); experiment: 48 h incubation with the salts: cell fluorescence, living cells, multiplication coefficient (Table 2); format: cell-based, Human; conditions: 48 hs, 50 mcg/ml
Experimental: as §1, §2, §3, §4

[6] = tested on: HEp-2 (larynx cancer cells); experiment: 48 h incubation with the salts: cell fluorescence, living cells, multiplication coefficient (Table 3); format: cell-based, Human; conditions: 48 hs, 50 mcg/ml
Experimental: as §1, §2, §3, §4
Hep-2 larynx cancer cells

[7] = tested on: KB (oral cavity cancer cells); experiment: 48 h incubation with the salts: cell fluorescence, living cells, multiplication coefficient (Table 2); format: cell-based, Human; conditions: 48 hs, 50 mcg/ml
Experimental: as §1, §2, §3, §4
KB oral cavity cancer cells

[8] = tested on: Hela (cervix uteri cancer cells); experiment: 48 h incubation with the salts: cell fluorescence, living cells, multiplication coefficient (Table 1); format: cell-based, Human; conditions: 48 hs, 50 mcg/ml
Experimental: as §1, §2, §3, §4

[9] = tested on: T-47D (breast cancer cells); experiment: 48 h incubation with the salts: cell fluorescence, living cells, multiplication coefficient (Table 3); format: cell-based, Human; conditions: 48 hs, 50 mcg/ml
Experimental: as §1, §2, §3, §4
T-47D breast cancer cells

[10] = tested on: Mm (Mm5MT/C1, mammary gland cancer cells of C3H-strain mice); experiment: as above; format: cell-based, Murine; conditions: Mm; 48 hs; 50 mcg/ml
Experimental: as §1, §2, §3, §4
mammary gland cancer cells of C3H-strain mice

Compound | Cell fluorescence /F/ [1] | Cell multiplication coefficient /M/ [1] | Percentage of living cells /P %/ [1] [%] | Cell fluorescence /F/ [2] | Cell multiplication coefficient /M/ [2] | Percentage of living cells /P %/ [2] [%] | Cell fluorescence /F/ [3] | Cell multiplication coefficient /M/ [3] | Percentage of living cells /P %/ [3] [%] | Cell fluorescence /F/ [4] | Cell multiplication coefficient /M/ [4] | Percentage of living cells /P %/ [4] [%] | Cell fluorescence /F/ [5] | Cell multiplication coefficient /M/ [5] | Percentage of living cells /P %/ [5] [%] | Cell fluorescence /F/ [6] | Cell multiplication coefficient /M/ [6] | Percentage of living cells /P %/ [6] [%] | Cell fluorescence /F/ [7] | Cell multiplication coefficient /M/ [7] | other results
CC1=C(CCC(=O)O)c2cc3[nH]c(cc4nc(cc5[nH]c(cc1n2)c(C(C)NC(C)C(=O)O)c5C)C(C(C)NC(C)C(=O)O)=C4C)c(C)c3CCC(=O)O.N=C(N)NCCC[C@H](N)C(=O)O.N=C(N)NCCC[C@H](N)C(=O)O (stereo not drawn) [PP/Ala/2 /Arg/2, l-arginine di/N-alanyl/-protoporphyrinate] | + | 0,50 | 50 | ++ | 0,50 | 50 | - | 0,30 | 30 | ++ | 0,15 | 15 | ++ | 0,33 | 17 | ++ | 0,21 | 21 | +++ | 0 | Percentage of living cells /P %/ [7]: 0%; Cell fluorescence /F/ [8]: +; Cell multiplication coefficient /M/ [8]: 0,11; Percentage of living cells /P %/ [8]: 11%; Cell fluorescence /F/ [9]: +++; Cell multiplication coefficient /M/ [9]: 0,82; Percentage of living cells /P %/ [9]: 85%; Cell fluorescence /F/ [10]: +++; Cell multiplication coefficient /M/ [10]: 0,84; Percentage of living cells /P %/ [10]: 86%
CC1=C(CCC(=O)O)c2cc3[nH]c(cc4nc(cc5[nH]c(cc1n2)c(C(C)NC(CC(=O)O)C(=O)O)c5C)C(C(C)NC(CC(=O)O)C(=O)O)=C4C)c(C)c3CCC(=O)O.N=C(N)NCCC[C@H](N)C(=O)O.N=C(N)NCCC[C@H](N)C(=O)O (stereo not drawn) [PP/Asp/2 /Arg/2, l-arginine di/N-aspartyl/-protoporphyrinate] | ++ | 0,73 | 25 | +++ | 0,52 | 17 | + | 0,55 | 55 | + | 0,15 | 14 | +++ | 0,81 | 48 | ++++ | 0,40 | 47 | ++ | 0,12 | Percentage of living cells /P %/ [7]: 16%; Cell fluorescence /F/ [8]: +++; Cell multiplication coefficient /M/ [8]: 0,50; Percentage of living cells /P %/ [8]: 38%; Cell fluorescence /F/ [9]: ++++; Cell multiplication coefficient /M/ [9]: 0,92; Percentage of living cells /P %/ [9]: 65%; Cell fluorescence /F/ [10]: +++; Cell multiplication coefficient /M/ [10]: 0,92; Percentage of living cells /P %/ [10]: 70%
